# Data from EP0934745B1, “Use of androsterone derivatives for inhibiting DNA binding of ap-1 and airway smooth muscle proliferation” (CHARLOTTE-MECKLENBURG HOSPITAL doing business as Carolinas …, priority 1998, dated 1999).
# Tests used:
# Human Erythrocyte G6PDH = target: T1, Human Erythrocyte G6PDH (Homo sapiens, UniProt P11413); experiment: Inhibition of purified glucose 6-phosphate dehydrogenase activity; type: biochemical; conditions: 0.01 U/ml Type XXVI G6PDH from human erythrocytes, vs DMSO vehicle-treated controls, read-out: PERCENT INHIBITION OF GLUCOSE 6-PHOSPHATE DEHYDROGENASE ACTIVITY
# T1 construct: purified G6PDH from human erythrocytes; purchased Sigma Type XXVI; host or cells: human erythrocytes (natural source)
# T1 sequence (P11413 whole entry): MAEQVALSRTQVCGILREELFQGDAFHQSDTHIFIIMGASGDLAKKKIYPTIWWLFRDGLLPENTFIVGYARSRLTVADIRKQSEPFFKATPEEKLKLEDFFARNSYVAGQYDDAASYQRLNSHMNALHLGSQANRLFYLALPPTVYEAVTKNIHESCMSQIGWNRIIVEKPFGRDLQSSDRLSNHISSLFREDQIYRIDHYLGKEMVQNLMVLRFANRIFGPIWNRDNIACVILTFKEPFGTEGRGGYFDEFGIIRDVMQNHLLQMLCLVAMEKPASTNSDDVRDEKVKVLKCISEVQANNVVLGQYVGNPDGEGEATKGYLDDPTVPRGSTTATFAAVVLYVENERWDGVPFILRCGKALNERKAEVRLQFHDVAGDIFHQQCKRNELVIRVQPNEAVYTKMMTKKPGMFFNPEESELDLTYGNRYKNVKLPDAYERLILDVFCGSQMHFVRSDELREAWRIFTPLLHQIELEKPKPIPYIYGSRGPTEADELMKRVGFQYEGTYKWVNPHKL
# [1] = system: rat tracheal smooth muscle; experiment: Proliferation of cultured airway smooth muscle (MTT reduction, cell counts); type: cell-based; conditions: for growth inhibition by direct visual count of stained cells: 10% FBS, 15,000 cells/well cultured for 24 hours (Figure 4A); for inhibition of FBS-induced cell proliferation (comparison in words): 10% FBS, 15,000 cells/well, 92-96 hours, MTT (Figures 3A, 3C)
# Method: Polyclonal horseradish peroxidase anti-rabbit IgG was from Transduction Laboratories (Lexington, KY). M-MLV reverse transcriptase was from Life Technologies (Gaithersburg, MD). All other materials were obtained from Sigma unless specified. Measurement of Cultured Airway Smooth Muscle Proliferation. Rat tracheal smooth muscle was cultured by euthanizing rats with pentobarbital overdose and removal of their tracheas. The posterior tracheal membrane was isolated, minced and digested twice for 30 minutes at 37°C. in HBSS containing 0.2% type IV collagenase and 0.05% type IV elastase. Each enzyme digest was collected and centrifuged for 5 minutes at 500 g at room temperature. The supernatant was removed and the pellet was resuspended in DMEM supplemented with 10% FBS, nonessential amino acids, penicillin (100 U/ml), streptomycin (100 µg/ml) and amphotericin (250 ng/ml). Cells were seeded in this medium into 25-cm^2 flasks at 2 x 10^5 cells per flask and incubated in a humidified atmosphere of 5% CO2/95% air at 37°C. Upon reaching confluence, cells were detached with 0.25% trypsin-0.002% EDTA solution for passage.
# Proliferation of cultured airway smooth muscle was quantitated using modification of a previously reported colorimetric method based upon metabolic reduction of the soluble yellow tetrazolium dye 3-[4,5-dimethylthiazol]-2yl-2,5-diphenyl tetrazolium bromide (MTT) to its insoluble purple formazan by the action of mitochondrial succinyl dehydrogenase. See Hirst, S.J., Barnes, P.J., and Twort, C.H.C., "Quantifying proliferation of cultured human and rabbit airway smooth muscle in response to serum and platelet derived growth factor," Am. J. Respir. Cell Mol. Biol., 7, 574-581 (1992). This assay empirically distinguishes between dead and living cells. For proliferation studies, cells were seeded into 24-well uncoated plastic plates at 15,000-50,000 cells per well and cultured with DMEM and mitogens. After 24-96 hours the medium was replaced with 1 ml/well fresh DMEM containing 100 µg/ml MTT and 0.5% FBS, and plates were incubated an additional hour MTT-containing medium was removed, cells were washed twice with 1 ml of sterile Dulbecco's modified phosphate buffered saline without Ca^2+ or Mg^2+ (DPBS), 0.5 ml dimethylsulfoxide (DMSO) was added to each well, and the absorbance of the solubilized purple formazan dye was measured at 540 nm on a Shimadzu UV160U spectrophotometer. A total of 4-6 wells was studied at each treatment condition.
# The optimum concentration of FBS for use as a mitogenic stimulus was determined by incubating 15,000 cells per well with DMEM containing 0.25, 1.0, 5.0 or 10.0% FBS and MTT reduction was determined after 24, 48, 72 or 96 hours. […] After 24 hours, cells were washed twice with DPBS, fixed and permeabilized by two sequential 5 minute exposures to ice-cold methanol, stained with Giemsa-modified Wright's stain for 3 minutes and washed with DPBS. Cell counts were performed on 10 random fields at 40 power using a 0.01-cm^2 ocular grid. Cell Culture Treatments for Measurement of Airway Smooth Muscle Proliferation. The effect of dehydroepiandrosterone (DHEA) and 16α-bromoepiandrosterone (16α-BrEA) on cellular proliferation was studied in cultures stimulated with 0.5-10% FBS or 1-50 ng/ml recombinant human platelet derived growth factor (PDGF-AA). […] See, for example, the method of Le, Y. Y. , and Xu, R.B., "The molecular mechanism of the action of the pharmacological doses of glucocorticoids. Studies on the low-affinity glucocorticoid receptor," Receptor, 5, 63-69 (1995).
# guinea pig main bronchi = experiment: Bronchial smooth muscle contraction in vitro (isolated bronchial rings, isometric tension)
# Method: Effect on bronchial smooth muscle contraction in vitro. To study the effect of DHEA on bronchial smooth muscle in vitro, male Hartley guinea-pigs (Charles River Laboratories, Inc., Wilmington, MA) were anaesthetized with sodium pentobarbital (pentobarbital sodium (Abbott Laboratories) (200 mg/kg intraperitoneally). Then trachea and lungs were quickly removed and immersed in oxygenated Krebs-Henseleit solution (K-H) containing (mM) : 115 NaCl, 25 NaHCO3, 1.38 NaH2PO4, 2.5 KCl, 2.46 MgSO4, 1.9 CaCl2, and 5.56 dextrose, aerated with 95% O2 and 5% CO2.
# The main bronchi were dissected free of loose connective tissue, under a stereo-microscope (Olympus SZH10), and bronchial rings were obtained and mounted in double jacketed organ baths filled with K-H at 37°C and continuously aerated with a 95% O2 and 5% CO2 gas mixture, which produced a pH of 7.4. The bronchial rings were connected to force displacement transducers (Grass FTO3) for continuous recording of isometric tension on paper polygraph (Gould RS3800) and allowed to equilibrate for 90 minutes. After the equilibration period 1mM acetylcholine was administered and the response monitored.
# Bronchial rings were partially contracted with 3·10^-2 M KCl or 10^-5 M acetylcholine (ACh) , then the effect of DHEA was studies by increasing cumulatively its concentration at log intervals from 10^-3 to 10^-4 M and measuring the changes produced in active tension.
# A concentration of 3 x 10^-2 M KCl was chosen on the basis of preliminary experiments, in which from concentration-response curves to KCl (10^-2 - 10^-1 M) it was determined that the concentration of KCl eliciting 50% of the maximum response (KCl-EC50) in the experimental set up. […] Similarly, 10^-5 M acetylcholine (ACh) was chosen as the concentration of ACh eliciting 50% of the maximum response.
# Since DHEA was dissolved in dimethyl sulfoxide (DMSO), four additional rings were contracted with 3 x 10^-2 M KCl (n=5) or 10^-5 M ACh (n=5) to determine whether this vehicle produced any alteration of the active force. […] The maximum final concentration of DMSO in the organ bath was 0.15%.
# Three of the strips used to study DHEA were rinsed with fresh K-H at the end of the experiment, treated with 1 mM acetylcholine, and the response monitored.
# In a second set of experiments either a single dose of 10^-5 M ACh was administered or a concentration-response curve to ACh was performed in the presence or absence of 10^-4 M DHEA (administered 15 minutes before ACh). The single dose of ACh was used to measure the rate of tension development, while the concentration-response study was used to evaluate whether DHEA affected sensitivity to ACh.
SMILES,inhibition at 25 µM (Human Erythrocyte G6PDH; 25 µM) [%],inhibition at 50 µM (Human Erythrocyte G6PDH; 50 µM) [%],growth inhibition by direct visual count of stained cells [1],inhibition of FBS-induced cell proliferation (comparison in words) [1],"IC50 ([1]; Rattus norvegicus, 48 h, read-out: 50% inhibitory concentration) [µM]","rate of tension development in response to 10^-5 ACh (guinea pig main bronchi; 10^-4 M DHEA administered 15 minutes before ACh, 2.27±0.82 without DHEA)","relaxation of the ACh-induced contraction (guinea pig main bronchi; 10^-4 M DHEA, bronchi partially contracted with 10^-5 M ACh, n=5) [%]","EC50 (guinea pig main bronchi; Cavia porcellus, read-out: concentration of DHEA which produced 50% relaxation of the KCl-induced contraction) [µM]","relaxation of the KCl-induced contraction (guinea pig main bronchi; maximum concentration of DHEA, bronchi partially contracted with 3 x 10^-2 M KCl, after subtraction of the reduction of force due to time-vehicle, n=6) [%]",smooth muscle functionality (response to 1 mM acetylcholine after rinsing) (guinea pig main bronchi; three strips rinsed with fresh K-H at the end of the DHEA experiment),"cell proliferation stimulated by PDGF ([1]; 50 ng/ml PDGF, 50,000 cells/well cultured for 72 hours, MTT (Figure 3B))"
"C[C@]12CC[C@H](O)C[C@@H]1CC[C@@H]1[C@@H]2CC[C@]2(C)C(=O)[C@H](Br)C[C@@H]12 [16α-BrEA, 16α-bromoepiandrosterone]",47 ± 6,57 ± 9,confirmed by cell counts,even more potent inhibitor of FBS-induced cell proliferation than DHEA,7.5,–,–,–,–,–,–
"C[C@]12CC[C@H](O)CC1=CC[C@@H]1[C@@H]2CC[C@]2(C)C(=O)CC[C@@H]12 [DHEA, dehydroepiandrosterone]",–,–,confirmed by cell counts,more active than DHEA-sulfate at high concentrations,–,1.85±0.85,37.98±4.76,21.6,76.28±6.96,not altered,inhibites cell proliferation
